Our source for the IC50 values is patent publication US5618812A, “Benzodiazepine derivatives” (Merck Sharp & Dohme, Ltd., priority 1992, dated 1997).

Counter-ions that a name gives are not always drawn. Like-named read-outs stand apart in the source and are kept apart here.

The target of one test is T1, CCK-B (Cavia porcellus, UniProt H0VZC5).
T1 construct: guinea pig brain (CCK-B); from tissue; host or cells: guinea pig brain
T1 sequence (H0VZC5 1-426): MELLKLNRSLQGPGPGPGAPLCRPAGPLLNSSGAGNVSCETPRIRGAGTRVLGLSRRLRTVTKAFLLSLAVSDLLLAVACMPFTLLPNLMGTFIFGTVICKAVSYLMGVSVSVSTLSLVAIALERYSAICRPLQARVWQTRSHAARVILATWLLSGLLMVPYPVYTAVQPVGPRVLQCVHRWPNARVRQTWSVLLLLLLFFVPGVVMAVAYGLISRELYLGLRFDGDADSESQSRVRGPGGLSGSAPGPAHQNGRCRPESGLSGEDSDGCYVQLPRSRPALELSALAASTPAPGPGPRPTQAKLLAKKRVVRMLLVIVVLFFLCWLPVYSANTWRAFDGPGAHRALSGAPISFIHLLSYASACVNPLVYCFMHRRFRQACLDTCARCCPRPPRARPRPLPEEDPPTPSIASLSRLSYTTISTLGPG
Briefly: displacement of specific 125I-CCK from guinea pig brain (CCK-B receptor binding). As to the method: The CCK-A and CCK-B antagonising activity of the compounds described herein was evaluated using the assays described in published European patent application no. 0514133. The method essentially involves determining the concentration of the test compound required to displace 50% of the specific ^125 I-CCK from rat pancreas (CCK-A) or guinea pig brain (CCK-B). The data in Table 1 were obtained for compounds of the Examples.

In another test the target is T2, CCK-A (Rattus norvegicus, UniProt P30551).
T2 sequence (P30551 1-444): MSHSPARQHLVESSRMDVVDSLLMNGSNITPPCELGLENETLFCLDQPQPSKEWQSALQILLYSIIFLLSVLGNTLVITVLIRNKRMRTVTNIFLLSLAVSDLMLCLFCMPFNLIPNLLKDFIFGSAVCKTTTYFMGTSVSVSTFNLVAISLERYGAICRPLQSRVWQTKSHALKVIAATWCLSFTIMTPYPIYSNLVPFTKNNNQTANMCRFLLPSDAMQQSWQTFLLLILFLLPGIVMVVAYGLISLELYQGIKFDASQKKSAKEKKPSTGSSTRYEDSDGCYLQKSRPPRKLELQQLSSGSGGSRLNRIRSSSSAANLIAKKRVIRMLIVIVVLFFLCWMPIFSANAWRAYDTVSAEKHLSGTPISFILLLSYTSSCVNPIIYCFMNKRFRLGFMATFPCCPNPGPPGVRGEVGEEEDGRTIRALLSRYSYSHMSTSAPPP
Briefly: biochemical. Type of test: binding. As for the experimental part: The CCK-A and CCK-B antagonising activity of the compounds described herein was evaluated using the assays described in published European patent application no. 0514133. The method essentially involves determining the concentration of the test compound required to displace 50% of the specific ^125 I-CCK from rat pancreas (CCK-A) or guinea pig brain (CCK-B).

Where [1] appears, read: read-out: CCK RECEPTOR BINDING RESULTS IC50 125I-CCK Brain.
[2] abbreviates: rat pancreas (CCK-A), 125I-CCK, read-out: CCK RECEPTOR BINDING RESULTS IC50 125I-CCK Pancreas.

Consider `Cc1cccc(NC(=O)NC2N=C(N3C[C@H]4CCCC[C@H]4C3)c3ccccc3N(C)C2=O)c1` (single isomer, unassigned; (-)) [Example 58, (-)-N-[2,3-Dihydro-1-methyl-5-(cis-octahydroisoindol-2-yl)-2-oxo-1H-1,4-benzodiazepin-3-yl]-N'-[3-methylphenyl]urea hydrochloride], for which the IC50 on CCK-B (setting [1]) was 2 nM; at CCK-A (read-out: CCK RECEPTOR BINDING RESULTS IC50 125I-CCK Pancreas), 2260 nM.
Take `CCCN1C(=O)C(NC(=O)Nc2cccc(C)c2)N=C(N(C)C2CCCCC2)c2ccccc21` (single isomer, unassigned; (-)) [Example 61, (-)-5-(N-Cyclohexyl-N-methylamino)-2,3-dihydro-2-oxo-1-propyl-1H-1,4-benzodiazepin-3-yl-N'[3-methylphenyl]urea]: the concentration for half-maximal inhibition (IC50) is 0.22 nM on CCK-B (setting [1]) and 704 nM at CCK-A (setting [2]).
As to `Cc1cccc(NC(=O)NC2N=C(N(C)C3CCCCC3)c3ccccc3N(C)C2=O)c1` (single isomer, unassigned; (-)) [Example 64, (-)5-(N-Cyclohexyl-N-methylamine)-2,3-dihydro-2-oxo-1-methyl-1H-1,4-benzodiazepin-3-yl-N'-[3-methylphenyl]urea. Hydrochloride], the results for the IC50 on CCK-B (setting [1]) and at CCK-A (setting [2]) were 0.22 nM and 2070 nM, respectively.
In the same order, the values of `Cc1cccc(NC(=O)NC2N=C(N(C)C3CCCCCC3)c3ccccc3N(C)C2=O)c1` (single isomer, unassigned; (-)) [Example 67, (-)-5-(N-Cycloheptyl-N-methylamino)-2,3-dihydro-1-methyl-2-oxo-1H-1,4-benzodiazepin-3-yl-N'-[3-methylphenyl]urea, Hydrochloride] are 0.1 nM and 2000 nM.
For `CN1C(=O)C(NC(=O)Nc2ccc3c(c2)CCC3)N=C(N(C)C2CCCCCC2)c2ccccc21` (single isomer, unassigned; (-)) [Example 70, (-)-5-(N-Cycloheptyl-N-methylamino)-2,3-dihydro-1-methyl-2-oxo-1H-1,4-benzodiazepin-3-yl-N'-[5-indanyl]urea. Hydrochloride], in that order: 0.61 nM and > 3000 nM.
Take `CN1C(=O)C(NC(=O)c2cc3ccccc3[nH]2)N=C(N2CC3CCC(CC3)C2)c2ccccc21` (single isomer, unassigned; (-)) [Example 88, (-)-N-(5-(3-Azabicyclo[3,2,2]nonan-3-yl)-2,3-dihydro-1-methyl-2-oxo-1H-1,4-benzodiazepin-3-yl)-1H-indole-2-carboxamide hydrochloride]: the IC50 on CCK-B (CCK RECEPTOR BINDING RESULTS IC50 125I-CCK Brain) was 66 nM; at CCK-A (CCK RECEPTOR BINDING RESULTS IC50 125I-CCK Pancreas, rat pancreas (CCK-A), 125I-CCK), 393 nM.
For `Cc1cccc(NC(=O)NC2N=C(N3[C@H](C)CCC[C@@H]3C)c3ccccc3N(C)C2=O)c1` (stereo partly drawn) [Example 6, N-[3(R,S)-2,3-Dihydro-5-(cis-2,6-dimethylpiperidin-1-yl)-1-methyl-2-oxo-1H-1,4-benzodiazepin-3-yl]N'-[3-methylphenyl]urea], the half-inhibitory concentration (IC50) was 10.9 nM on CCK-B (setting [1]) and 235 nM at CCK-A (setting [2]).
For `C[C@@H]1CCC[C@H](C)N1C1=NC(NC(=O)Nc2ccc3c(c2)CCC3)C(=O)N(C)c2ccccc21` (stereo partly drawn) [Example 13, N-[3(R,S)-2,3-Dihydro-5-(cis-2.6-dimethylpiperidin-1-yl)-1-methyl-2-oxo-1H-1,4-benzodiazepin-3-yl]N'-[indan-5-yl]urea], in that order: 1.53 nM and 496 nM.
Regarding `Cc1cccc(NC(=O)NC2N=C(N3C[C@@H](C)O[C@@H](C)C3)c3ccccc3N(C)C2=O)c1` (stereo partly drawn) [Example 16, N-[3(R,S)-2,3-Dihydro-5-(cis-2,6-dimethylmorpholin-4-yl)-1-methyl-2-oxo-1H-1,4-benzodiazepin-3-yl]N'-[3-methylphenyl]urea], the IC50 was found to be 19.1 nM at CCK-B (setting [1]) and 2650 nM on CCK-A (setting [2]).
For `CCCN1C(=O)C(NC(=O)Nc2cccc(C)c2)N=C(N2C[C@@H]3C[C@H]2CN3C)c2ccccc21` (stereo partly drawn) [Example 32, N-[3(R,S)-2,3-Dihydro-5-((1S,4S)-5-methyl-2,5-diazabicyclo-[2,2,1]heptan-2-yl)-2-oxo-1-propyl-1H-1,4-benzodiazepin-3-yl]-N'-[3-methylphenyl]urea], in that order: 22 nM and > 3000 nM.
In the case of `CC(C)CN1C(=O)C(NC(=O)[C@@H]2Cc3ccccc3N2)N=C(N2CCCCCC2)c2ccccc21` (stereo partly drawn) [Example 93, 3(R,S)-N-(2,3-Dihydro-5-(homopiperidin-1-yl)-1-(2-methylpropyl)-2-oxo-1H-1,4-benzodiazepin-3-yl)-(2S)-indoline-2-carboxamide], the half-maximal inhibitory concentration (IC50) on CCK-B (setting [1]) was determined as 348 nM; at CCK-A (setting [2]), 101 nM.
“(+)-[5-(N-Cycloheptyl-N-methylamino)-2,3-dihydro-1ethyl-2-oxo-1H-1,4-benzodiazepin-3-yl ]-N'-[5-indanyl ]urea Hydrochloride [Example 71]”: the IC50 on CCK-B (setting [1]) was found to be 86 nM; on CCK-A (setting [2]), 145 nM.
